Test results published in PubChem BioAssay (NCI).
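Results reflect a 48-hour exposure of cells in 96-well plates to compound at five concentrations. At the TGI there is no net growth.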

Columns and labels:
Assay in all cases: NCI anticancer screen, dose series, 48 h
[1] = tested on: PC-3 prostate
[2] = tested on: A549 NSCLC
[3] = tested on: HOP-62 NSCLC
[4] = tested on: UACC-62 melanoma
[5] = tested on: MDA-N
[6] = tested on: MDA-MB-435
[7] = tested on: IGROV1 ovarian
[8] = tested on: NCI-H522 lung
[9] = tested on: SK-MEL-2 melanoma
[10] = tested on: SN12C renal
[11] = tested on: BT-549 breast
[12] = tested on: HOP-92 NSCLC
[13] = tested on: RXF 393 renal
[14] = tested on: MOLT-4 leukemia
[15] = tested on: SW-620 colon
[16] = tested on: DU-145 prostate
[17] = tested on: OVCAR-5 ovarian
[18] = tested on: M14 melanoma
[19] = tested on: K-562 leukemia
[20] = tested on: T-47D breast
[21] = tested on: UO-31 renal
[22] = tested on: LOX IMVI melanoma
[23] = tested on: NCI-H460 lung
[24] = tested on: U251 CNS
[25] = tested on: HS 578T breast
[26] = tested on: HT29 colon
[27] = tested on: SNB-75 CNS
[28] = tested on: HCC-2998 colon
[29] = tested on: SK-MEL-28 melanoma
[30] = tested on: OVCAR-4 ovarian
[31] = tested on: COLO 205 colon
[32] = tested on: SNB-19 CNS
[33] = tested on: 786-0 renal
[34] = tested on: RPMI-8226 leukemia
[35] = tested on: ACHN renal
[36] = tested on: HL-60(TB) leukemia
[37] = tested on: OVCAR-8 ovarian
[38] = tested on: TK-10 renal
[39] = tested on: CAKI-1 renal
[40] = tested on: SK-MEL-5 melanoma
[41] = tested on: SR leukemia
[42] = tested on: MDA-MB-231 breast
[43] = tested on: SF-295 CNS
[44] = tested on: NCI/ADR-RES ovarian
[45] = tested on: HCT-15 colon
[46] = tested on: HCT-116 colon
[47] = tested on: SF-539 CNS
[48] = tested on: NCI-H226 lung
[49] = tested on: SF-268 CNS
[50] = tested on: OVCAR-3 ovarian
[51] = tested on: MCF7 breast
[52] = tested on: NCI-H23 lung
[53] = tested on: KM12 colon
[54] = tested on: MALME-3M melanoma
[55] = tested on: UACC-257 melanoma
[56] = tested on: SK-OV-3 ovarian
[57] = tested on: CCRF-CEM leukemia
[58] = tested on: A498 renal
[59] = tested on: EKVX NSCLC

NNC(=O)c1cc(Cl)ccc1NC(=O)C12CC3CC(CC(C3)C1)C2
TGI [1]: > 100 µM | TGI [2]: 48.2 µM | TGI [3]: > 100 µM | TGI [4]: > 100 µM | TGI [5]: 70.5 µM | TGI [6]: > 100 µM | TGI [7]: > 100 µM | TGI [8]: > 100 µM | TGI [9]: > 100 µM | TGI [10]: 62.2 µM | TGI [11]: > 100 µM | TGI [12]: > 100 µM | TGI [13]: > 100 µM | TGI [14]: > 100 µM | TGI [15]: > 100 µM | TGI [16]: > 100 µM | TGI [17]: 53.9 µM | TGI [18]: 31.8 µM | TGI [19]: > 100 µM | TGI [20]: > 100 µM | TGI [21]: 45.4 µM | TGI [22]: > 100 µM | TGI [23]: > 100 µM | TGI [24]: > 100 µM | TGI [25]: > 100 µM | TGI [26]: 48 µM | TGI [27]: > 100 µM | TGI [28]: 65 µM | TGI [29]: > 100 µM | TGI [30]: > 100 µM | TGI [31]: > 100 µM | TGI [32]: 43.1 µM | TGI [33]: 79.9 µM | TGI [34]: 69.7 µM | TGI [35]: 77.8 µM | TGI [36]: 94.2 µM | TGI [37]: > 100 µM | TGI [38]: > 100 µM | TGI [39]: > 100 µM | TGI [40]: 76.5 µM | TGI [41]: 88.3 µM | TGI [42]: > 100 µM | TGI [43]: > 100 µM | TGI [44]: > 100 µM | TGI [45]: > 100 µM | TGI [46]: 85.5 µM | TGI [47]: > 100 µM | TGI [48]: > 100 µM | TGI [49]: 89.5 µM | TGI [50]: > 100 µM | TGI [51]: > 100 µM | TGI [52]: > 100 µM | TGI [53]: > 100 µM | TGI [54]: 68.6 µM | TGI [55]: 96.2 µM | TGI [56]: > 100 µM

CCc1cccc(CC)c1Nc1nc(-c2ccccc2-c2ccccc2)cs1
TGI [1]: > 100 µM | TGI [2]: > 100 µM | TGI [3]: > 100 µM | TGI [4]: > 100 µM | TGI [5]: > 100 µM | TGI [6]: > 100 µM | TGI [7]: > 100 µM | TGI [8]: > 100 µM | TGI [9]: > 100 µM | TGI [10]: > 100 µM | TGI [11]: 84.8 µM | TGI [12]: > 100 µM | TGI [57]: > 100 µM | TGI [13]: > 100 µM | TGI [14]: > 100 µM | TGI [15]: > 100 µM | TGI [16]: > 100 µM | TGI [17]: > 100 µM | TGI [18]: > 100 µM | TGI [19]: > 100 µM | TGI [20]: > 100 µM | TGI [21]: > 100 µM | TGI [22]: > 100 µM | TGI [23]: > 100 µM | TGI [24]: > 100 µM | TGI [25]: > 100 µM | TGI [27]: > 100 µM | TGI [28]: > 100 µM | TGI [29]: > 100 µM | TGI [58]: > 100 µM | TGI [30]: > 100 µM | TGI [31]: > 100 µM | TGI [59]: > 100 µM | TGI [32]: > 100 µM | TGI [33]: > 100 µM | TGI [34]: > 100 µM | TGI [35]: > 100 µM | TGI [36]: > 100 µM | TGI [38]: > 100 µM | TGI [39]: > 100 µM | TGI [40]: > 100 µM | TGI [41]: > 100 µM | TGI [42]: > 100 µM | TGI [43]: > 100 µM | TGI [45]: > 100 µM | TGI [46]: > 100 µM | TGI [47]: > 100 µM | TGI [49]: > 100 µM | TGI [50]: > 100 µM | TGI [51]: > 100 µM | TGI [52]: > 100 µM | TGI [53]: > 100 µM | TGI [54]: > 100 µM | TGI [55]: > 100 µM | TGI [56]: > 100 µM
